This is an account of results in article PMC10041525, “New Dual Inhibitors of Bacterial Topoisomerases with Broad-Spectrum Antibacterial Activity and In Vivo Efficacy against Vancomycin-Intermediate Staphylococcus aureus” (Journal of Medicinal Chemistry, 2023).

Converted amounts (≈) assume the structure as drawn. Read-outs that look alike come from different tables or passages of the source.

What is called MIC is the smallest concentration in the dilution series that meets the test's criterion for growth inhibition.

The test system of data set [1] is Chinese hamster ovary K1 cells. The settings on record: 150 µM.
Data set [2] has as its system Chinese hamster ovary K1 cells. The experiment in a line: in vitro micronucleus test. The settings on record: with S9, 150 µM.
The test system of data set [3] is Neisseria gonorrhoeae (n = 12). The experiment in a line: MIC broth microdilution at IHMA Europe. The settings on record: for MIC: Neisseria gonorrhoeae, read-out: MIC. It is filed as cell-based. (Broth dilution looks for growth in wells or tubes with falling amounts of substance.)
For data set [4], the system named is N. gonorrhoeae ATCC 49226. As to the kind of experiment: IHMA QC MIC. It is filed as cell-based. The settings on record: Neisseria gonorrhoeae, ATCC49226; QC strain N. gonorrhoeae ATCC 49226, test date 2021-11-18; read-out: MIC. The text has this: Supplement jm2c01905_si_004.xlsx, sheet "QC" | column: MIC [µg/mL]
Data set [5] has as its system E. coli ATCC 25922. Further details: method as in earlier work. The settings on record: QC range for E. coli ATCC 25922, ref CLSI; cited from earlier work.
Data set [6] relates to S. pneumoniae ATCC 49619. Further details: method as in earlier work. The settings on record: QC range for S. pneumoniae ATCC 49619, ref CLSI; cited from earlier work.
The test system of data set [7] is H. influenzae ATCC 49247. Further details: method as in earlier work. The settings on record: QC range for H. influenzae ATCC 49247, ref CLSI; cited from earlier work.
For data set [8], the system named is N. gonorrhoeae ATCC 49226. Further details: method as in earlier work. The settings on record: QC range for N. gonorrhoeae ATCC 49226, ref CLSI; cited from earlier work.

In the case of `c1ccc2c(c1)cc1ccc3cccc4ccc2c1c34` [Benzo[a]pyrene], the “% Cytostasis” value in data set [1] is given as 8.3%. Moreover, in data set [2], the No. binucleate cells was 1702.

`COCC1=C(C(=O)O)N2C(=O)[C@@H](NC(=O)/C(=N\OC)c3csc(N)n3)[C@H]2SC1` [Cefpodoxime, cefpodoxime]: the “Cumulative % at MIC” value in data set [3] (MIC 0.015 µg/mL) was 8.3%; in data set [3] (MIC 0.03 µg/mL) it was 16.7%; in data set [3] (MIC 0.06 µg/mL) it was 41.7%; in data set [3] (MIC 0.5 µg/mL) it was 66.7%; in data set [3] (MIC 1 µg/mL) it was 83.3%; in data set [3] (MIC 2 µg/mL), 100.0%. Also, the “Cumulative % at MIC” value in data set [3] (MIC […]) came out at 58.3%. Also, the “No. of isolates at MIC” value in data set [3] (MIC 0.015 µg/mL) was 1; in data set [3] (MIC 0.03 µg/mL), 1; in data set [3] (MIC 0.06 µg/mL), 3; in data set [3] (MIC 0.5 µg/mL) it was 1; in data set [3] (MIC 1 µg/mL), 2; in data set [3] (MIC 2 µg/mL), 2. Further, the “No. of isolates at MIC” value in data set [3] (MIC […]) was determined as 2. Further, the MIC in data set [3] (isolate IHMA 1123853) came to 1 µg/mL (≈ 2.34 µM); in data set [3] (isolate IHMA 1130935), 0.03 µg/mL (≈ 0.0702 µM); in data set [3] (isolate IHMA 1130989), 0.015 µg/mL (≈ 0.0351 µM); in data set [3] (isolate IHMA 1130991), 1 µg/mL (≈ 2.34 µM); in data set [3] (isolate IHMA 1137292), 0.5 µg/mL (≈ 1.17 µM); in data set [3] (isolate IHMA 1145734), 0.25 µg/mL (≈ 0.585 µM). Further, the MIC came out at 0.06 µg/mL (≈ 0.14 µM) in data set [3] (isolate IHMA 1145735); 0.06 µg/mL (≈ 0.14 µM) in data set [3] (isolate IHMA 1165897); 0.06 µg/mL (≈ 0.14 µM) in data set [3] (isolate IHMA 1194748); 0.25 µg/mL (≈ 0.585 µM) in data set [3] (isolate IHMA 1194750); 2 µg/mL (≈ 4.68 µM) in data set [3] (isolate IHMA 1546199); 2 µg/mL (≈ 4.68 µM) in data set [3] (isolate IHMA 1546215). For the same molecule, the MIC in data set [4] amounted to 0.06 µg/mL (≈ 0.14 µM). Further, the “MIC, CLSI Range” value was 0,25 - 1 µg/mL in data set [5], 0,03 - 0,12 µg/mL in data set [6], 0,25 - 1 µg/mL in data set [7] and 0,03 - 0,12 µg/mL in data set [8].
